Earlier results on one molecule are cited in patent US20240317750A1, “An Efficient Process for the Synthesis of Methylliberine and Polymorphs Thereof” (Fertis India Pvt. Ltd., priority 2021, published 2024).

For this data set the following is noted: background statement, available toxicological information; no test described.

As to `COc1nc2c(c(=O)n1C)n(C)c(=O)n2C` [methylliberine, 2-Methoxy-1,7,9-trimethyl-7,9-dihydro-1H-purine-6,8-dione], the genotoxicity result is “does not cause any genotoxicity”.
